[invAb] = inverted abasic unit; d = 2'-deoxy (DNA); m = 2'-O-methyl; r = 2'-OH (RNA); f = 2'-fluoro
Assays:
STAT1 mouse mRNA = assay: Initial screen of siNAs: STAT1 mRNA knock-down in NIH 3T3 cells (96-well transfection, Taqman RT-PCR); assay type: cell-based; settings: 10 nM siNA, 24 hrs, normalized against GAPDH, average of 2 experiments
Method: NIH 3T3 (mouse; ATCC cat# CRL-1658): Cells were cultured at 37° C. in the presence of 5% CO2 and grown in Dulbecco's modified Eagle's medium (DMEM) with 4 mM L-glutamine adjusted to contain 1.5 g/L sodium bicarbonate and 4.5 g/L glucose and supplemented with fetal bovine serum at a final concentration of 10%, 100 μg/mL of streptomycin, and 100 U/mL penicillin.
(§1) Cells were plated in all wells of a tissue-culture treated, 96-well plate at a final count of 5000 cells/well in 100 μL of the appropriate culture media. The cells were cultured for 24 hours after plating at 37° C. in the presence of 5% CO2.
(§2) After 24 hours, complexes containing siNA and RNAiMax were created as follows: A solution of RNAiMax diluted 33-fold in OPTI-MEM was prepared. In parallel, solutions of the siNAs for testing were prepared to a final concentration of 120 nM in OPTI-MEM. After incubation of RNAiMax/OPTI-MEM solution at room temperature for 5 min, an equal volume of the siNA solution and the RNAiMax solution were added together for each of the siNAs.
(§3) This solution was incubated at room temperature for 20 minutes. After incubation, 20 uL of the solution was added to each of the relevant wells. The final concentration of siNA in each well was 10 nM and the final volume of RNAiMax in each well was 0.3 ul.
(§4) The time of incubation with the RNAiMax-siNA complexes was 24 hours and there was no change in media between transfection and harvesting, unless otherwise indicated.
(§5) RNA was extracted from a 96-well plate using the TaqMan® Gene Expression Cells-to-CT™ Kit (Cat# 4399002) with a modified protocol. Briefly, a 60 uL (1 plate) or 110 uL (2 plates) of the Lysis Solution with DNase I was dispensed into each well of the Lysis Buffer Plate (twin.tec full skirt plate). The lysis buffer and stop plates were stored at 4° C. until the cells were washed.
(§6) The culture medium was aspirated and discarded from the wells of the culture plate. 50 uL of chilled DPBS was added to each well, then aspirated and discarded. The lysis was performed automatically using a BioMek FX instrument and method. After the Biomek method was completed, the lysis plate was incubated for 2 min at room temperature. The lysis plate can be stored for 2 hours at 4° C., or at −20° C. or −80° C. for two months.
(§7) Each well of the reverse transcription plate required 10 uL of 2× reverse transcriptase Buffer, 1 uL of 20× reverse transcription enzyme and 2 uL of nuclease-free water. The reverse transcription master mix was prepared by mixing 2× reverse transcription buffer, 20× reverse transcription enzyme mix, and nuclease-free water. 13 uL of the reverse transcription master mix was dispensed into each well of the reverse transcription plate (semi-skirted). A separate reverse transcription plate was prepared for each cell plate. The plate was loaded onto a Biomek NX or Biomek FX Dual-96 and the Biomek method was run. The program is programmed to automatically added 7 uL of lysate from the cell lysis procedure described above into each well of the reverse transcription plate. The plate is sealed and spun on a centrifuge (1000 rpm for 30 seconds) to settle the contents to the bottom of the reverse transcription plate. The plate is placed in a thermocycler at 37° C. for 60 min, 95° C. for 5 min, and 4° C. until the plate is removed from the thermocycler. Upon removal, if not used immediately, the plate was frozen at −20° C.
(§8) A series of probes and primers were used to detect the various mRNA transcripts of the genes of β-Actin (human cell line only), and of STAT1 and GAPDH in mouse and human cell lines. All Taqman probes and primers for the experiments here-in described were supplied as pre-validated sets by Applied Biosystems, Inc. (see Table 2).
The assays were performed on an ABI 7900 instrument, according to the manufacturer's instructions. […]

STAT1 human mRNA = assay: Initial screen of siNAs: STAT1 mRNA knock-down in A549 cells (96-well transfection, Taqman RT-PCR); assay type: cell-based; settings: 10 nM siNA, 24 hrs, normalized against GAPDH, average of 2 experiments
Method: A549 (human; ATCC cat# CCL-185): Cells were cultured at 37° C. in the presence of 5% CO2 and grown in Ham's F12K medium with 2 mM L-glutamine adjusted to contain 1.5 g/L sodium bicarbonate and supplemented with fetal bovine serum at a final concentration of 10% and 100 μg/mL of streptomycin and 100 U/mL penicillin.
as §1, §2, §3, §4, §5, §6, §7, §8
The assays were performed on an ABI 7900 instrument, according to the manufacturer's instructions.
Within each experiment, the baseline was set in the exponential phase of the amplification curve, and based on the intersection point of the baselines with the amplification curve, a Ct value was assigned by the instrument. […]

Substance	% KD Mouse (STAT1 mouse mRNA) [%]	% KD Human (STAT1 human mRNA) [%]
25346-DC: STAT1 siNA duplex, human target site 837; modified strands SEQ ID NO: 29 and 30 (chain 1 CCUGGAAGAUUUACAAGAUTT; chain 2 AUCUUGUAAAUCUUCCAGGUU; chain 1: DNA at AGT, 2'-fluoro at CU, [invAb] at 5' end, 3' end, backbone not given here; chain 2: sugars from the 5' end rrrffmfmmmffffffmmmmm, backbone not given here)	31	62
25347-DC: STAT1 siNA duplex, human target site 2318; modified strands SEQ ID NO: 31 and 32 (chain 1 CUGAGAAUAUUCCUGAGAATT; chain 2 UUCUCAGGAAUAUUCUCAGUU; chain 1: DNA at AGT, 2'-fluoro at CU, [invAb] at 5' end, 3' end, backbone not given here; chain 2: sugars from the 5' end rrrffmmmmmfmfffffmmmm, backbone not given here)	57	93
25348-DC: STAT1 siNA duplex, human target site 746; modified strands SEQ ID NO: 33 and 34 (chain 1 GCACAGUGAUGUUAGACAATT; chain 2 UUGUCUAACAUCACUGUGCUU; chain 1: DNA at AGT, 2'-fluoro at CU, [invAb] at 5' end, 3' end, backbone not given here; chain 2: sugars from the 5' end rrrfffmmfmffmffmfmfmm, backbone not given here)	37	51
25349-DC: STAT1 siNA duplex, human target site 185; modified strands SEQ ID NO: 35 and 36 (chain 1 CCUGCGCGCAGAAAAGUUUTT; chain 2 AAACUUUUCUGCGCGCAGGUU; chain 1: DNA at AGT, 2'-fluoro at CU, [invAb] at 5' end, 3' end, backbone not given here; chain 2: sugars from the 5' end rrrfffffffmfmfmfmmmmm, backbone not given here)	33	91
25350-DC: STAT1 siNA duplex, human target site 190; modified strands SEQ ID NO: 37 and 38 (chain 1 GCGCAGAAAAGUUUCAUUUTT; chain 2 AAAUGAAACUUUUCUGCGCUU; chain 1: DNA at AGT, 2'-fluoro at CU, [invAb] at 5' end, 3' end, backbone not given here; chain 2: sugars from the 5' end rrrfmmmmfffffffmfmfmm, backbone not given here)	31	82
25352-DC: STAT1 siNA duplex, human target site 540; modified strands SEQ ID NO: 41 and 42 (chain 1 GCUGGAUGAUCAAUAUAGUTT; chain 2 ACUAUAUUGAUCAUCCAGCUU; chain 1: DNA at AGT, 2'-fluoro at CU, [invAb] at 5' end, 3' end, backbone not given here; chain 2: sugars from the 5' end rrrmfmffmmffmfffmmfmm, backbone not given here)	34	91
25353-DC: STAT1 siNA duplex, human target site 2253; modified strands SEQ ID NO: 43 and 44 (chain 1 CACGAAGAAAGAACUUUCUTT; chain 2 AGAAAGUUCUUUCUUCGUGUU; chain 1: DNA at AGT, 2'-fluoro at CU, [invAb] at 5' end, 3' end, backbone not given here; chain 2: sugars from the 5' end rrrmmmffffffffffmfmmm, backbone not given here)	79	86
25354-DC: STAT1 siNA duplex, human target site 678; modified strands SEQ ID NO: 45 and 46 (chain 1 GAAGGAAGAAAGGAAAAUUTT; chain 2 AAUUUUCCUUUCUUCCUUCUU; chain 1: sugars from the 5' end d17 f2 d2, [invAb] at 5' end, 3' end, backbone not given here; chain 2: sugars from the 5' end r3 f16 m2, backbone not given here)	80	91
25355-DC: STAT1 siNA duplex, human target site 1126; modified strands SEQ ID NO: 47 and 48 (chain 1 CUGCAGAACUGGUUCACUATT; chain 2 UAGUGAACCAGUUCUGCAGUU; chain 1: DNA at AGT, 2'-fluoro at CU, [invAb] at 5' end, 3' end, backbone not given here; chain 2: sugars from the 5' end rrrfmmmffmmffffmfmmmm, backbone not given here)	35	90
25356-DC: STAT1 siNA duplex, human target site 1115; modified strands SEQ ID NO: 49 and 50 (chain 1 GCUUGGAUCAGCUGCAGAATT; chain 2 UUCUGCAGCUGAUCCAAGCUU; chain 1: DNA at AGT, 2'-fluoro at CU, [invAb] at 5' end, 3' end, backbone not given here; chain 2: sugars from the 5' end rrrfmfmmffmmfffmmmfmm, backbone not given here)	35	43
25357-DC: STAT1 siNA duplex, human target site 2285; modified strands SEQ ID NO: 51 and 52 (chain 1 CUGACAUCAUUCGCAAUUATT; chain 2 UAAUUGCGAAUGAUGUCAGUU; chain 1: DNA at AGT, 2'-fluoro at CU, [invAb] at 5' end, 3' end, backbone not given here; chain 2: sugars from the 5' end rrrffmfmmmfmmfmffmmmm, backbone not given here)	29	93
25358-DC: STAT1 siNA duplex, human target site 1020; modified strands SEQ ID NO: 53 and 54 (chain 1 CACUGAACUUACCCAGAAUTT; chain 2 AUUCUGGGUAAGUUCAGUGUU; chain 1: DNA at AGT, 2'-fluoro at CU, [invAb] at 5' end, 3' end, backbone not given here; chain 2: sugars from the 5' end rrrffmmmfmmmfffmmfmmm, backbone not given here)	17	79
25359-DC: STAT1 siNA duplex, human target site 268; modified strands SEQ ID NO: 55 and 56 (chain 1 CGACAGUCUUGGCACCUAATT; chain 2 UUAGGUGCCAAGACUGUCGUU; chain 1: DNA at AGT, 2'-fluoro at CU, [invAb] at 5' end, 3' end, backbone not given here; chain 2: sugars from the 5' end rrrmmfmffmmmmffmffmmm, backbone not given here)	47	88

— US20120022142A1, “RNA Interference Mediated Inhibition of Signal Transducer and Activator of Transcription 1 (STAT1) Gene Expression Using Short Interfering Nucleic Acid (siNA)” (Merck Sharp & Dohme Corp., priority 2009, published 2012)
